Measurements: patent US8207217B2 (Apotex Technologies Inc, priority 2007, dated 2012)

What was measured:
[1] = Speciation plot / pH of aqueous solution (Hyperquad Simulation & Speciation, experimentally determined pKas); format: physicochemical
Source text: We have determined that an advantageous salt for use in pharmaceutical preparations is the mono-sodium salt of the D-isoglutamyl-D-tryptophan, which can be formally represented by formula III, which is the predominant pharmaceutical salt at neutral pH. This takes advantage of the fact that the amino acid is a zwitterion. We have determined that the mono-sodium salt as shown in formula III is the most preferred salt in pharmaceutical preparations. The di-sodium salt of formula II is the predominant species at a pH of about 12 or above. A solution of di-sodium salt in water will have a pH of about 12 and therefore it is unsuitable for use in a liquid formulation. Adjustment of a solution of the di-sodium salt back to a pH of about 7 to about 7.4, in fact produces the mono-sodium salt as the predominant species in solution.
FIG. 1 is a speciation plot of the dipeptide H-D-iGlu-D-Trp-OH and its salt calculated with the software Hyperquad Simulation & Speciation using experimentally determined pKas of the acid and amine groups. LH2=H-D-iGlu-D-Trp-OH in diacid form represented by a compound of formula I, LH=mono carboxylic acid salt such as the mono-sodium salt represented by a compound of formula III, L=dicarboxylic acid salt such as the di-sodium salt represented by a compound of formula II, LH3=acid addition salt of H-D-iGlu-D-Trp-OH such as the mono hydrochloride salt of a compound of formula I wherein the NH2 is protonated. The X axis provides the pH of the solution. The Y axis reports the molar fraction of the species present at a particular pH. Note: % formation relative to L is the default terminology of the software. The concentration of 0.5M is used to reflect the equivalency of 1 gm of thymodepressin in 6 ml water during isolation purposes.
Depending on its concentration, the pH of a solution of di-sodium salt is more than about 8.2. A solution containing 100% of the di-sodium salt has pH of greater than about 11.5 as per speciation plot (FIG. 1). The high pH is unsuitable for dosing to human as a solution. pH adjustment from about 7.2 to about 7.4 with mineral acid introduces additional salt, for example, sodium chloride into the formulation.

[2] = oral drug in traditional tablet or capsule form; cited from earlier work
Solubility in water = format: physicochemical
Protocol: A solution of D-isoglutamyl-D-tryptophan and sodium hydroxide in water is prepared by adding solid D-isoglutamyl-D-tryptophan to sodium hydroxide solution. […] Sodium hydroxide is chosen based on the convenience in obtaining sodium hydroxide solution, however other sodium bases such as sodium hydride, sodium carbonate, sodium bicarbonate can be used. These chemicals are obvious chemical equivalents to sodium hydroxide for step (a) of the process. In step (b), the solution is filtered to remove any particulates prior to proceeding to step (c).

[3] = Hygroscopicity of the solid in air; format: physicochemical
Protocol: A powdery or amorphous form of a compound, intended for pharmaceutical use may give rise to manufacturing problems due to bulk density issues, hygroscopicity and variable water content that cannot be corrected by vacuum drying. D-isoglutamyl-D-tryptophan is a dipeptide and the drying of an amorphous form at elevated temperature, for example, 80-100° C. under vacuum is not recommended. Thus, there are serious difficulties experienced during the purification of the di-sodium salt of D-isoglutamyl-D-tryptophan and obtaining the pure di-sodium salt on a manufacturing scale. Further, as discussed above, there is no published procedure for its preparation.

Row | Compound | fraction present in the mono-sodium salt form ([1]; in water at a pH of about 7.0 to about 7.4, 0.5M) | oral bioavailability [2] | solubility in water (Solubility in water) [mg per ml] | behaviour of the freeze-dried solid in air ([3]; freeze-dried) | hygroscopicity ([3]; solid form) | pH of a solution containing 100% of the di-sodium salt ([1]; as per speciation plot (FIG. 1)) | pH of a solution ([1]; depending on its concentration) | pH of a solution in water ([1]; solution of di-sodium salt in water)
1 | N[C@H](CCC(=O)N[C@H](Cc1c[nH]c2ccccc12)C(=O)O)C(=O)O [D-isoglutamyl-D-tryptophan] | about 100% | not bioavailable | < 20 |  |  |  |  | 
2 | di-sodium salt of D-isoglutamyl-D-tryptophan |  |  |  | turning into a gel in a matter of minutes in air | extremely hygroscopic | greater than 11.5 | more than 8.2 | about 12
